Among the data in ChEMBL document CHEMBL4806960, “Inhibitors of GPR174 and Uses Thereof” (2020) are Activity, EC50 and Ratio values, retold here.

Assay [1] has as its target T1, Probable G-protein coupled receptor 174 (Homo sapiens, UniProt Q9BXC1). In words: Inhibition of human GPR174 in anti-CD3/antiCD28-stimulated human PBMC assessed as increase in IL-2 level measured after 2 days by ELISA. The class given is functional, tissue-based. The conditions noted are these: time 2.0 day.
Assay [2] has as its target T1, Probable G-protein coupled receptor 174. In words: Inhibition of human GPR174 in anti-CD3/antiCD28-stimulated human PBMC assessed as reduction in natural Treg cells (FoxP3+Helios+) at 100 uM measure after 7 days by flow cytometry. The conditions noted are these: time 7.0 day. It is filed as functional, cell-based.
The target is the same in assay [3]. In words: Inhibition of human GPR174 in anti-CD3/antiCD28-stimulated human PBMC assessed as increase in IL-6 production at 10 uM measured after 2 days relative to control. The conditions noted are these: time 2.0 day. It is filed as functional, tissue-based.
For assay [4] the target is unchanged. Briefly: Inhibition of human GPR174 in anti-CD3/antiCD28-stimulated CD45RA-FOXP+ human PBMC assessed as reduction in CTLA4 expression measured in memory Treg cells relative to control. It is filed as functional, cell-based. The conditions noted are these: dose 0.19-6 µM.
The target is the same in assay [5]. In words: Inhibition of human GPR174 in anti-CD3/antiCD28-stimulated CD45RA-FOXP+ human PBMC assessed as reduction in CTLA4 expression measured in non-memory Treg cells relative to control. The class given is functional, cell-based. To be noted: dose 0.19-6 µM.
Assay [6] has the same target. Briefly: Inhibition of GPR174 (unknown origin) in cells assessed as incorporation of nuclear localization sequence into transmembrane protein by cellular redistribution assay. The class given is functional.
Assay [7] has the same target. In words: Inhibition of human GPR174 in anti-CD3/antiCD28-stimulated human PBMC assessed as increase in IL-2 production measured after 2 days. The class given is functional, tissue-based. The conditions noted are these: dose 3-60 µM, time 2.0 day.
For assay [8] the target is unchanged. In words: Inhibition of human GPR174 in anti-CD3/antiCD28-stimulated human PBMC assessed as non-T cell cell population at 10 uM measured after 2 days relative to control. The conditions noted are these: time 2.0 day. The class given is functional, tissue-based. Details: scale not given: the % may be the effect or the level left.
Assay [9] deals with Probable G-protein coupled receptor 174 (Mus musculus) (UniProt Q3U507). In words: Inhibition of mouse GPR174 in anti-CD3/antiCD28-stimulated mouse splenocytes assessed as increase in IL-2 production at 10 uM measured after 2 days. It is filed as functional, tissue-based. The conditions noted are these: Splenocyte, time 2.0 day.
The target in assay [10] is T1, Probable G-protein coupled receptor 174. In words: Inhibition of human GPR174 in anti-CD3/antiCD28-stimulated human PBMC assessed as reduction in TGIT expression in CD8+ T cell relative to control. It is filed as functional, tissue-based.
Assay [11] shares this target. In words: Inhibition of human GPR174 in anti-CD3/antiCD28-stimulated human PBMC assessed as reduction in PD-L1 expression in CD4+ T cell relative to control. The class given is functional, tissue-based.
For assay [12] the target is unchanged. In words: Inhibition of human GPR174 in anti-CD3/antiCD28-stimulated human regulatory T cells assessed as reduction in CTLA4 expression relative to control. The class given is functional, tissue-based. To be noted: T cell, dose 0.19-6 µM.
Assay [13] has the same target. In words: Inhibition of human GPR174 in anti-CD3/antiCD28-stimulated human PBMC assessed as CD8+ cell population at 10 uM measured after 2 days relative to control. Details: scale not given: the % may be the effect or the level left. The conditions noted are these: time 2.0 day. It is filed as functional, tissue-based.
Assay [14] has the same target. Briefly: Inhibition of human GPR174 in anti-CD3/antiCD28-stimulated human PBMC assessed as increase in natural Treg cells […] at 100 uM measure after 7 days by flow cytometry. It is filed as functional, cell-based. To be noted: time 7.0 day.
Another assay has as its system Splenocyte. Briefly: Effect on IL-2 production in mouse GPR174 knock out splenocytes at 10 uM measured after 2 days. The class given is functional, cell-based. To be noted: time 2.0 day.
Assay [15] addresses T1, Probable G-protein coupled receptor 174. In words: Inhibition of human GPR174 in anti-CD3/antiCD28-stimulated human PBMC assessed as reduction in AREG expression in CD4+ T cell relative to control. It is filed as functional, tissue-based.
Assay [16] shares this target. In words: Inhibition of human GPR174 in anti-CD3/antiCD28-stimulated human PBMC assessed as increase in IFNgamma production at 10 uM measured after 2 days relative to control. The class given is functional, tissue-based. To be noted: time 2.0 day.
Assay [17] has the same target. Briefly: Inhibition of human GPR174 in anti-CD3/antiCD28-stimulated human PBMC assessed as increase in TNFalpha production at 10 uM measured after 2 days relative to control. The class given is functional, tissue-based. The conditions noted are these: time 2.0 day.
Assay [18] shares this target. Briefly: Inhibition of human GPR174 in anti-CD3/antiCD28-stimulated human PBMC assessed as reduction in natural Treg cells (FoxP3+Helios+) measure after 7 days by ELISA. It is filed as functional, cell-based. To be noted: dose 3-30 µM, time 7.0 day.
The target is the same in assay [19]. In words: Inhibition of human GPR174 in anti-CD3/antiCD28-stimulated human PBMC assessed as reduction in CTLA4 expression relative to control. To be noted: dose 0.19-6 µM. It is filed as functional, tissue-based.
Assay [20] shares this target. Briefly: Inhibition of GPR174 in anti-CD3/antiCD28-stimulated human PBMC assessed as increase in IFNgamma level measured after 2 days by ELISA. The class given is functional, tissue-based. To be noted: time 2.0 day.
The target is the same in assay [21]. In words: Inhibition of human GPR174 in anti-CD3/antiCD28-stimulated human PBMC assessed as CD4+ cell population at 10 uM measured after 2 days relative to control. It is filed as functional, tissue-based. On the set-up: scale not given: the % may be the effect or the level left. The conditions noted are these: time 2.0 day.
Assay [22] shares this target. Briefly: Inhibition of human GPR174 in anti-CD3/antiCD28-stimulated human PBMC assessed as increase in IL-10 production at 10 uM measured after 2 days relative to control. The conditions noted are these: time 2.0 day. It is filed as functional, tissue-based.
Assay [23] has the same target. In words: Antagonist activity at human GPR174 expressed in cells assessed as inhibition of CRE-luc reporter activity by measuring decrease in Gs-protein signalling activity relative to control. To be noted: filed as antagonist. The class given is functional, cell-based.
Assay [24] shares this target. In words: Allosteric modulator activity at human GPR174 expressed in cells assessed as inhibition of CRE-luc reporter activity by measuring decrease in Gs-protein signalling activity relative to control. It is filed as functional, cell-based. To be noted: filed as […] allosteric modulator.
The target is the same in assay [25]. In words: Inverse agonist activity at human GPR174 expressed in cells assessed as inhibition of CRE-luc reporter activity by measuring decrease in Gs-protein signalling activity relative to control. It is filed as functional, cell-based.

Structures are written as SMILES. Active and inactive are the calls of the source. The calls are words filed in the database; no cut-off is given here.

T1 sequence (Q9BXC1 whole entry): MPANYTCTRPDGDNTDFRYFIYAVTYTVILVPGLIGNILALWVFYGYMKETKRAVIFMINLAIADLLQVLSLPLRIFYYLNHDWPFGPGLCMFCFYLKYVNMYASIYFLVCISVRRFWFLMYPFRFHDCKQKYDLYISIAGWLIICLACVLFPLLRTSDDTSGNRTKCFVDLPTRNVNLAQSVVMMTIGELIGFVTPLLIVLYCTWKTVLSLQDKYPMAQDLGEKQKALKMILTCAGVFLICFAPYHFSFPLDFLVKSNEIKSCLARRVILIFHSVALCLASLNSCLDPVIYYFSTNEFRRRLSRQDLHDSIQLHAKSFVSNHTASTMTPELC
Sequence of Probable G-protein coupled receptor 174 (Mus musculus) (Q3U507 whole entry): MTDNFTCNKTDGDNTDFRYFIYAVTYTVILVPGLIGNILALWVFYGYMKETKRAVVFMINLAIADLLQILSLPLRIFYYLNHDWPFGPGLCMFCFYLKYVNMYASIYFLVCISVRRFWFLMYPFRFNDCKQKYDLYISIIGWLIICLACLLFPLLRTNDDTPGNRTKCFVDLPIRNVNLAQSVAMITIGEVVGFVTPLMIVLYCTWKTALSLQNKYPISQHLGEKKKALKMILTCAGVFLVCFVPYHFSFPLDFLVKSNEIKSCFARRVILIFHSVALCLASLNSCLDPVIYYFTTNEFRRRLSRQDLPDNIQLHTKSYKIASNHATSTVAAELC

`O=C(c1ccccc1)N1CCN(c2cc(N3CCCCC3)c(F)cc2[N+](=O)[O-])CC1`: the Activity result in assay [1] is “Dose-Dependent Effect”.

Consider `CC1CCN(c2cc(N3CCN(S(=O)(=O)c4ccccc4)CC3)c([N+](=O)[O-])cc2F)CC1`, for which the result in assay [2], in assay [3], in [4], in [5], in assay [9] and in assay [14] was Active. In addition, the result in assay [16], in [17], in assay [20] and in assay [22] was Active. In addition, the Activity result in [1] was “Dose-Dependent Effect”; in [7] it was “Dose-Dependent Effect”; in [8], 33.9%; in assay [10], “Dose-Dependent Effect”; in [11] it was “Dose-Dependent Effect”; in assay [12], “Dose-Dependent Effect”. Moreover, the Activity in assay [13] was 17.1%; in assay [15] it was “Dose-Dependent Effect”; in assay [18], “Dose-Dependent Effect”; in assay [19], “Dose-Dependent Effect”; in assay [21], 46.2%. In addition, in [6], the EC50 came to 600 nM. For the same compound, in the assay with Splenocyte, the outcome was inactive.

Turning to `O=C(N/N=C/c1cc(Cl)ccc1O)c1ccncc1`, the outcome in [23] and in assay [24] was Active.

In the case of `Cc1ccccc1Nc1nnc(-c2ccc(C)c(S(N)(=O)=O)c2)c2ccccc12`, the outcome in [23] and in assay [24] was Active.

For `C=C(C)COc1ccc(NC(=O)Nc2ccccc2)cc1`, the Ratio in assay [25] amounted to 3.7.

`Cc1ccc(-c2nnc(Nc3ccccc3)c3ccccc23)cc1S(N)(=O)=O`: the outcome in assay [23] and in [24] was Active.

In the case of `Cc1cc(C(=O)N/N=C/c2cc(Br)ccc2O)c(C)o1`, the result in assay [23] and in assay [24] was Active.

`CC(=O)c1ccc(N2CCN(C(=O)c3ccc(F)cc3)CC2)c(F)c1`: the outcome in [23] and in assay [24] was Active.

As for `CCCC(=O)c1ccc(N2CCN(S(=O)(=O)c3ccc(C)cc3)CC2)c(F)c1`, in [23], the outcome was Active.

Turning to `CCOc1ccc(C2C3=C(CCCC3=O)NC3=C2C(=O)c2ccccc23)cn1` (stereo not given), the Ratio in [25] amounted to 3.

Regarding `Cc1cc(Cc2ccc(NC(=O)c3cccs3)c(C)c2)ccc1NC(=O)c1cccs1`, the outcome in [23] and in [24] was Active. The EC50 in assay [6] came to 500 nM.
